One block for each compound: values may come before it.
Tests used:
DRG neurons = test: Fura-2 intracellular Ca2+ imaging in isolated DRG neurons; type: cell-based, mouse; settings: for fraction of sensitive DRG neurons in Trpm3−/− preparations versus Trpm3+/+: Trpm3−/− mice
Experimental: (§1) Human embryonic kidney cells, HEK293T, were grown in Dulbecco's modified Eagle's medium (DMEM) containing 10% (v/v) human serum, 2 mM L-glutamine, 2 units/ml penicillin, and 2 mg/ml streptomycin at 37° C. in a humidity-controlled incubator with 10% CO2. HEK293T cells were transiently transfected with murine TRPM3α2 (accession number AJ 544535) in the bicistronic pCAGGS/IRES-GFP vector, using Mirus TransIT-293 (Mirus corporation; Madison USA). Transfected cells were visualized by green fluorescence protein (GFP) expression whereas GFP negative cells from the same batch were used as controls. TG and DRG neurons from adult (postnatal weeks 8-12) male mice were isolated as described previously (Karashima et al., 2007). HEK293T cells stably transfected with TRPM3α2 were developed using the Flp-In System (Invitrogen).
(§2) Fura-2-based ratiometric intracellular Ca^2+ measurements were performed as described previously (Vriens et al., 2007). The following procedure was used to distinguish stimulus-induced responses from background variations in fluorescence. First, we calculated the time derivative of the fluorescence ratio (dRatio/dt), and the standard deviation (SD) of dRatio/dt in the absence of any stimulus. A positive response was noted when a stimulus caused an increase of dRatio/dt exceeding 5×SD. […] For every condition, a minimum of 100 cells derived from at least three separated isolations and in at least twelve independent measurements were analyzed.

TRPV1 [1] = biological target: T1, TRPV1 (Homo sapiens, UniProt Q8NER1); test: Ca2+ imaging of TRPV1-mediated responses in the presence of AMG 9810; type: cell-based
T1 construct: expressed in transfected cells; host or cells: HEK293T, transient
T1 sequence (Q8NER1 whole entry, species assumed): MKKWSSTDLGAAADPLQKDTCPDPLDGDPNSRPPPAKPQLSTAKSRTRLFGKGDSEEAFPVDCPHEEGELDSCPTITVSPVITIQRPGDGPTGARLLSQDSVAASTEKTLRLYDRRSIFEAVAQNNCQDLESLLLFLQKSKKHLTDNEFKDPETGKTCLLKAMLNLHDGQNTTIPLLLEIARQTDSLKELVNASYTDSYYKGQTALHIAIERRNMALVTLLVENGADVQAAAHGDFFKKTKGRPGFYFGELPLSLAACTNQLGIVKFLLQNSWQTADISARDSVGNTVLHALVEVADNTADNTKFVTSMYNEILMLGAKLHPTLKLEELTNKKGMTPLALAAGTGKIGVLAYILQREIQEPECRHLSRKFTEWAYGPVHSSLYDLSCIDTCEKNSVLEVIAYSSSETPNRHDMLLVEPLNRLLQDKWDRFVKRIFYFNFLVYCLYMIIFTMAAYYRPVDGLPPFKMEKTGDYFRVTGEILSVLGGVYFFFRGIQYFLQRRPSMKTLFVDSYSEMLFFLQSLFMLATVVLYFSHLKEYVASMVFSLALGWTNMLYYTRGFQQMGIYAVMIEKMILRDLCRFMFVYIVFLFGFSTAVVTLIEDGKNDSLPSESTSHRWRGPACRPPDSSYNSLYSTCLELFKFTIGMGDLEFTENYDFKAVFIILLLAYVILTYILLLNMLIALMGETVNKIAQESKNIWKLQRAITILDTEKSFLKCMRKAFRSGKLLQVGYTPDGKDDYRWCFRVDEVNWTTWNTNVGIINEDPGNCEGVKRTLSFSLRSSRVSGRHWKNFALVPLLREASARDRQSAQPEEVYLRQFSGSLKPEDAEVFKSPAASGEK

TRPM3 [2] = biological target: T2, TRPM3 (Mus musculus, UniProt J9SQF3); test: Ca2+ imaging of TRPM3-mediated responses in the presence of AMG 9810; type: cell-based
T2 sequence (J9SQF3 1-1709 isoform J9SQF3-12): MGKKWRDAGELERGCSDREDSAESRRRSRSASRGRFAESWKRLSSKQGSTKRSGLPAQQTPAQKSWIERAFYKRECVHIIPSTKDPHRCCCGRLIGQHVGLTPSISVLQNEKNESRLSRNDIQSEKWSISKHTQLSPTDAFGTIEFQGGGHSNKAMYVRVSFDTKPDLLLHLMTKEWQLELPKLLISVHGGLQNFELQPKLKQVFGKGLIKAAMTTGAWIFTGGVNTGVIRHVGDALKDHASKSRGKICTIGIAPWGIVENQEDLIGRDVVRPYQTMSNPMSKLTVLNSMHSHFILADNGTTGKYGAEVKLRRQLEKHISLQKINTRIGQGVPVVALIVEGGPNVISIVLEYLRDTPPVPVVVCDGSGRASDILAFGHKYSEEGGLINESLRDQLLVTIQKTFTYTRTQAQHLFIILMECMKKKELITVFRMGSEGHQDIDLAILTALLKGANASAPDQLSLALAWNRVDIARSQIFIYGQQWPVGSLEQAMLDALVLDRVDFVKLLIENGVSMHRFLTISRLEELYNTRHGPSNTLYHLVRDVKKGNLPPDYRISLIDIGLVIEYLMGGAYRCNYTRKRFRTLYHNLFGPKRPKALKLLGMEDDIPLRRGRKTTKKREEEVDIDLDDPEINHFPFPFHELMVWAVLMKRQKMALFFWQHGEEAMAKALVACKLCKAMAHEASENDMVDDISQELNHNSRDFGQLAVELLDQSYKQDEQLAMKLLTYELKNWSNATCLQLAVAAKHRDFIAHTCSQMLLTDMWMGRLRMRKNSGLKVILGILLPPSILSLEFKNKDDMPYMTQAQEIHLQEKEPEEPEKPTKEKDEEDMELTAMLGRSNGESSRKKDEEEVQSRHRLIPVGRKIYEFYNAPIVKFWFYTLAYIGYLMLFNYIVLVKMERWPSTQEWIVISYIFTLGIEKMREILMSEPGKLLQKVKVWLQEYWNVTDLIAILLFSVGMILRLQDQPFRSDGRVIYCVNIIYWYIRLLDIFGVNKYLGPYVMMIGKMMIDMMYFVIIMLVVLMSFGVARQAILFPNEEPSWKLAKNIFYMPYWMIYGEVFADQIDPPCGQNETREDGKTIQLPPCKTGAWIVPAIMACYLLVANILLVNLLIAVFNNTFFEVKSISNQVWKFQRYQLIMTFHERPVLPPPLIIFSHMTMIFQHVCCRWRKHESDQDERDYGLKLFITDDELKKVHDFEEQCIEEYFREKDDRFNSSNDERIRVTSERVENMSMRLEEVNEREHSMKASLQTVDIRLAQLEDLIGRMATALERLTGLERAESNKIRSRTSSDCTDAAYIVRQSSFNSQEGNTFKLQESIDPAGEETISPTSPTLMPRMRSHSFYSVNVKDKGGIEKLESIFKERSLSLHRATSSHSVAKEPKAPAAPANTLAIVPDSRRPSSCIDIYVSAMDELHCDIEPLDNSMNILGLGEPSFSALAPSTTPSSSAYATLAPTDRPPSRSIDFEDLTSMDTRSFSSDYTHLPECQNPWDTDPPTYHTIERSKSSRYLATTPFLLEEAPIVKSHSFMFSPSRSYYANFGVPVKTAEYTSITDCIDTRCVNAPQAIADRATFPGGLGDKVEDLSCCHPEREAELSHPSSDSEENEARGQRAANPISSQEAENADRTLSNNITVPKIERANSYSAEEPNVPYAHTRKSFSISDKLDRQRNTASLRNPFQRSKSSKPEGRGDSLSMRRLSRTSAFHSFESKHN
Experimental: as §2

TG neurons [3] = test: Fura-2 intracellular Ca2+ imaging in isolated TG neurons; type: cell-based, mouse; settings: for fraction of sensitive TG neurons in Trpm3−/− preparations versus Trpm3+/+: Trpm3−/− mice
Experimental: as §1, §2

TRPM3α2 [4] = biological target: T3, TRPM3α2 (Mus musculus, UniProt J9SQF3); test: Intracellular Ca2+ responses in HEK293T cells transiently expressing TRPM3; type: cell-based, murine; settings: PS 20 μM, capsaicin 2 μM
T3 construct: expressed in transfected cells; host or cells: HEK293T, transient
T3 sequence (J9SQF3 1-1709 isoform J9SQF3-12): as above
Experimental: as §1
as §2, with “stimulus.” for “stimulus. A positive response was noted when a stimulus caused an increase of dRatio/dt exceeding 5×SD.”

TG neurons [5] = test: Whole-cell patch-clamp on TG neurons; type: cell-based, mouse
Experimental: (§3) Whole-cell membrane currents were measured with an EPC-10 (HEKA Elektronik, Lambrecht, Germany). The sampling rate was 20 kHz and currents were digitally filtered at 2.9 kHz. For recordings on HEK293T cells, the extracellular solution contained (in mM): 138 NaCl, 5.4 KCl, 2 MgCl2, 2 CaCl2, 10 glucose, 10 HEPES (pH 7.2 with NaOH), and the pipette solution contained (in mM): 100 CsAsp, 45 CsCl, 10 EGTA, 10 HEPES, 1 MgCl (pH 7.2 with CsOH). For recordings on sensory neurons, the extracellular solution contained (in mM): 140 NaCl, 4 KCl, 2 MgCl2, 100 nM TTX, 10 TRIS (pH 7.4 with HCl), and the pipette solution contained (in mM): 140 CsCl, 0.6 MgCl2, 1 EGTA, 10 HEPES, 5 TEA (pH 7.2 with CsOH). To determine the I-V relationship of PS induced currents in neurons, all measurements were performed under monovalent free extracellular conditions in order to suppress other cationic conductances present in DRG neurons. The extracellular solution contained in mM 2 CaCl2, 2 MgCl2, 10 HEPES, 280 D-Mannitol (pH 7.2 with NMDG).

TRPM3 [6] = biological target: T2, TRPM3; test: Whole-cell current measurements in TRPM3-expressing HEK293T cells; type: cell-based, murine; design: expressed in transfected cells; settings: PS 5 μM
Experimental: as §3

mice [7] = test: Aversive drinking test; type: in vivo, mouse; settings: PS 750 μM in drinking water
Experimental: To evaluate the contribution of TRPM3 to trigeminal nociception, we used an aversive drinking test (Caterina et al., 2000). Over a period of 3 days, mice were allowed to drink from a bottle of water for only 1 hour/day. On the fourth day, this solution was supplemented with PS (750 μM). In Trpm3^+/+ mice, this evoked a modest but significant aversion, as evidenced by a 30% reduction in consumed water volume (FIG. 4C).
(§4) Hind paw injections, drinking tests, thermal gradient tests, temperature choice tests, hot plate, cold plate, tail clip and tail immersion assays were performed as previously described (Cao et al., 1998; Caterina et al., 2000; Karashima et al., 2009; Mocrich et al., 2005). To evoke inflammatory hyperalgesia, Complete Freund's Adjuvant (CFA, Sigma) (50 μl) was injected intraplantarly in both hindpaws 24 h before behavioral testing. Corn oil was used as vehicle control. To obtain pharmacological inhibition of TRPV1, AMG 9810 (Tocris Bioscience) dissolved in DMSO was injected i.p at 3 mg/kg during consecutive 7 days (Gavva et al., 2007; Gavva et al., 2005). DMSO was used as vehicle control. All animal experiments were carried out in accordance with the European Union Community Council guidelines and were approved by the local ethics committee.

TRPM3 [8] = biological target: T2, TRPM3; test: Intracellular Ca2+ increase by low doses of PS at room temperature and 37° C., HEK293T stably expressing TRPM3; type: cell-based, murine; design: expressed in transfected cells; settings: 100 nM PS
Experimental: as §1
as §2, with “stimulus.” for “stimulus. A positive response was noted when a stimulus caused an increase of dRatio/dt exceeding 5×SD.”

mice [9] = test: Nocifensive behavior after injection into the plantar skin of the hind paw; type: in vivo, mouse
Experimental: as §4

TRPM3α2 [10] = biological target: T3, TRPM3α2; test: 96 well plate Fluo-4 assay of temperature-dependent Ca2+ responses, HEK293T stably expressing TRPM3; type: cell-based, murine; settings: PS at 10 μM
Experimental: To determine an average temperature-response relation for TRPM3, we also used a fluo-4-based assay using 96 well plates and the 7500 Real-Time PCR system (Applied Biosystems). HEK293T cells stably expressing murine TRPM3α2 (FIG. 9B) or non transfected HEK293T cells were loaded with Fluo-4-AM for 30 min, trypsinized, centrifuged, resuspended in a solution containing (in mM) 150 NaCl, 6 KCl, 2 MgCl2, 2 CaCl2, and 10 HEPES (pH 7.4 with NaOH) and transferred to a 96-well plate (at 15000-25000 cells/well; 50 μl). When indicated, PS (10 μM) was added to the wells. Fluo-4 fluorescence was measured while the well temperature was raised from 16 to 43° C. in 3-degrees steps. Background-subtracted fluorescence signals were used to calculate temperature-induced changes in fluorescence as ΔF/F16 °C, where F16 °C is the background corrected fluorescence at 16° C. and ΔF=F−F16 °C. The neurosteroids pregnenolone sulphate, progesterone and the TRPV1 activator capsaicin (all Sigma) were applied at indicated concentrations from a respectively 100 mM, 250 mM and 10 mM stock solution in DMSO.

TRPV1 [11] = biological target: T1, TRPV1; test: Intracellular Ca2+ responses in HEK293T cells transiently expressing TRPV1; type: cell-based; settings: PS 20 μM, capsaicin 2 μM
Experimental: as §2

TRPM3 [12] = biological target: T2, TRPM3; settings: cited from earlier work
TRPA1 = TRPA1 (Homo sapiens, UniProt O75762); settings: read-out: EC50 as agonist of TRPA1; cited from earlier work
Sequence of TRPA1 (O75762 whole entry, species assumed): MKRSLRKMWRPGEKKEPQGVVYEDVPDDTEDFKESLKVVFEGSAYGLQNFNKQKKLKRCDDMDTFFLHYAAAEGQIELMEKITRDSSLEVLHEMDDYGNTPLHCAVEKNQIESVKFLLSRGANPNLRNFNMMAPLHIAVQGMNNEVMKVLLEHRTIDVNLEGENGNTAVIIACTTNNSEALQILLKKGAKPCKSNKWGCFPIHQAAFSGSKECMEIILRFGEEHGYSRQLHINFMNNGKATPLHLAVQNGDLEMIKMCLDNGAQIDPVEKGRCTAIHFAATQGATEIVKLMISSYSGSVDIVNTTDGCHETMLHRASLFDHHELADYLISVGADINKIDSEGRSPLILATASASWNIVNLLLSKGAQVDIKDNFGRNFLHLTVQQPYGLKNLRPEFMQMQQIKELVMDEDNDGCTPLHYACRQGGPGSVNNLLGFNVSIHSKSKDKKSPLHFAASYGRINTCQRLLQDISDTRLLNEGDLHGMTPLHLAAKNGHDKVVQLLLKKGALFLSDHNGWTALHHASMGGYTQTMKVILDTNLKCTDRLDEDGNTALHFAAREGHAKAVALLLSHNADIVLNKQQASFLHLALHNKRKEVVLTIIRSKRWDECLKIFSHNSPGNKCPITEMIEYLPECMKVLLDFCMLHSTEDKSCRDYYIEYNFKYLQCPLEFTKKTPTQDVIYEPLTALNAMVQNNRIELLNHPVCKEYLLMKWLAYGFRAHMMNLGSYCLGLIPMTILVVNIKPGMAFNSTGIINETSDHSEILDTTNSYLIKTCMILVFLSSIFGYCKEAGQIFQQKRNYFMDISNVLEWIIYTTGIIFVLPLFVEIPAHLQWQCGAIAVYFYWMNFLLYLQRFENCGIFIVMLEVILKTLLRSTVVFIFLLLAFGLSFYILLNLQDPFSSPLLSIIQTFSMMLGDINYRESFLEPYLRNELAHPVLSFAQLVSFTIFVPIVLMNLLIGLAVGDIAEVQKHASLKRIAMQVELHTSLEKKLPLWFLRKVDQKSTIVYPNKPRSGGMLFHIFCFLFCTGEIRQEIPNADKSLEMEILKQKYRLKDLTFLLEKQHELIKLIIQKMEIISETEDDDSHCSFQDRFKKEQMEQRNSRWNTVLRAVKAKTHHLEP

[13] = Trpv1−/−, Trpa1−/− and combined Trpv1−/−/Trpa1−/− mice
[14] = Trpm3+/+ mice, PS 2.5 and 5 nmol/paw, progesterone 25 nmol/paw

- TRPV1-mediated heat (42° C.) and capsaicin (2 μM) responses (TRPV1 [1]): full inhibition
- TRPM3-mediated heat (42° C.) and PS (40 μM) responses (TRPM3 [2]): unaltered
Compound: CC(C)(C)c1ccc(/C=C/C(=O)Nc2ccc3c(c2)OCCO3)cc1 [AMG 9810, (E)-3-(4-t-butylphenyl)-N-(2,3-dihydrobenzo[b][1,4]dioxin-6-yl)acrylamide]
- effect on percentage of heat responders in DRG neurons (DRG neurons; AMG 9810 5 μM): significantly reduced
- effect on capsaicin responses in DRG neurons (DRG neurons; AMG 9810 5 μM, Trpm3+/+ and Trpm3−/− DRG neurons): completely eliminated
- heat-responsive cells remaining after treatment (DRG neurons; Trpm3−/− neurons, AMG 9810 5 μM): substantial fraction of heat-responsive cells

Compound: C=CCN=C=S [MO, mustard oil]
- fraction of sensitive DRG neurons in Trpm3−/− preparations versus Trpm3+/+ (DRG neurons): not changed
- fraction of sensitive TG neurons in Trpm3−/− preparations versus Trpm3+/+ (TG neurons [3]): not changed

Compound: CC(=O)C1CCC2C3CC=C4CC(OS(=O)(=O)O)CCC4(C)C3CCC12C (centres unmarked) [PS, pregnenolone sulphate]
- intracellular Ca2+ response of TRPM3-expressing cells (TRPM3α2 [4]): robust responses
- DRG neurons with robust and reversible calcium signals (DRG neurons; Trpm3+/+ mice, n=303, PS 10 μM): 58%
- fraction of sensitive DRG neurons in Trpm3−/− preparations versus Trpm3+/+ (DRG neurons): drastically decreased
- responses in DRG neurons from TRPV1/TRPA1 knockout mice (DRG neurons; [13]): conserved
- TG neurons with inward currents of more than 10 pA (TG neurons [5]; Trpm3+/+ mice, 15 of 23): 65%
- TG neurons with inward currents of more than 10 pA (TG neurons [5]; Trpm3−/− mice, 0 of 21): never observed
- TG neurons with inward currents of more than 10 pA (TG neurons [5]; Trpv1−/−/Trpa1−/− mice, 9 of 17): 53%
- current response to a low dose of PS at higher temperatures (TRPM3 [6]): strongly potentiated
- reduction in consumed water volume (mice [7]; Trpm3+/+ mice): 30%
- aversive response in drinking test (mice [7]; Trpm3−/− mice): no aversive response
- Ca2+ response to PS (TRPM3 [8]; 37° C.): evoked robust responses
- Ca2+ response to PS (TRPM3 [8]; room temperature): subthreshold
- nocifensive behavior (paw licking and lifting) (mice [9]; [14]): evoked strong nocifensive behavior
- nocifensive behavior (paw licking and lifting) (mice [9]; Trpm3−/− mice): completely lacked this nocifensive response
- nocifensive behavior (paw licking and lifting) (mice [9]; combined Trpv1−/−/Trpa1−/− knockout mice): elicited a nocifensive response that was similar to that observed in Trpm3^+/+ mice
- shift of the thermal response profile to lower temperatures (TRPM3α2 [10]): 6.1±0.4 degrees
- TG neurons with robust and reversible calcium signals (TG neurons [3]; Trpm3+/+ mice, n=273, PS 10 μM): 57%
- fraction of sensitive TG neurons in Trpm3−/− preparations versus Trpm3+/+ (TG neurons [3]): drastically decreased
- responses in TG neurons from TRPV1/TRPA1 knockout mice (TG neurons [3]; [13]): conserved

- intracellular Ca2+ response of TRPM3-expressing cells (TRPM3α2 [4]): insensitive
- intracellular Ca2+ response of TRPV1-expressing cells (TRPV1 [11]): responded
Compound: COc1cc(CNC(=O)CCCC/C=C/C(C)C)ccc1O [capsaicin]
- fraction of sensitive DRG neurons in Trpm3−/− preparations versus Trpm3+/+ (DRG neurons): not changed
- TG neurons responding to capsaicin (TG neurons [5]; Trpm3+/+ mice, 13 of 23): 57%
- TG neurons responding to capsaicin (TG neurons [5]; Trpm3−/− mice, 11 of 21): 53%
- nocifensive behavior (paw licking and lifting) (mice [9]; Trpm3−/− mice): evoked the normal nocifensive behavior
- fraction of sensitive TG neurons in Trpm3−/− preparations versus Trpm3+/+ (TG neurons [3]): not changed

Compound: COC(=O)C1=C(C)NC(C)=C(C(=O)OC)C1c1ccccc1[N+](=O)[O-] [nifedipine]
- EC50 (TRPM3 [12]; read-out: EC50 as agonist of TRPM3): 30 µM
- EC50 (TRPA1): 0.4 µM

Compound: CC(=O)[C@H]1CC[C@H]2[C@@H]3CCC4=CC(=O)CC[C@]4(C)[C@H]3CC[C@]12C [progesterone]
- TRPM3 agonist activity (TRPM3 [12]): no TRPM3 agonist activity
- nocifensive behavior (paw licking and lifting) (mice [9]; [14]): did not evoke measurable nociceptive responses
- nocifensive behavior (paw licking and lifting) (mice [9]; Trpm3−/− mice): did not evoke measurable nociceptive responses

Reference: patent publication US9194863B2, “Treatment of pain” (priority 2011, dated 2015)
